Assays:
Assay type in all cases: in vivo, mouse
[1] = system: animal model treated with MK-801 in wild-type mice; experiment: pre-wave suppression test in MK-801-treated wild-type mice; settings: lisuride intraperitoneally after MK-801, FIG. 6
Procedure: (§1) Pre-pulse suppression (%)=100−[(startle response to pre-stimulus+stimulus)/(start-up response to stimulus)]*100 [Equation 1]
(§2) Startle response was confirmed in an animal model treated with apomorphine or MK-801 in wild-type mice. […] Thereafter, sensorimotor gating was evaluated through a pre-wave suppression test (converted using Equation 1 above).

[2] = system: animal model treated with apomorphine in wild-type mice; experiment: pre-wave suppression test in apomorphine-treated wild-type mice; settings: lisuride intraperitoneally after apomorphine, FIG. 5
Procedure: as §1, §2

[3] = system: Fmr1-deficient animal model (fragile X syndrome); experiment: home-cage test in Fmr1-deficient animal model; settings: Fmr1 KO mice, lisuride once daily for 5 days, sniffing measured for 15 minutes, FIG. 2
Procedure: (§3) Purchased a 5-week-old Fmr1 knockout mouse (Jackson Laboratory, USA) weighing about 22 g to 24 g, and acclimatized to an environment with a temperature of 23±2° C. and humidity of 55±10% and a light-dark cycle of 12 hours while allowing them to freely consume water and feed (Experimental Animal Center, Konkuk University). As experimental animals, wild-type (WT) with normal FMRP expression and male KO mice lacking FMRP (fragile X mental retardation protein) expression (fragile X syndrome; FXS) were used. Dosing and experiments were performed according to the age of the week. Dosing was performed at the same time. Behavioral experiments were conducted 30 minutes after administration. […] Meanwhile, 0.25 (v/v) % DMSO was intraperitoneally administered to the control group.
A home-cage test evaluates sociability in the breeding cage removing the possible confounders of stress due to abrupt changes in the environment. After raising the group of animals to be tested together, a wire cage was placed inside the home cage and allowed the animals to acclimatize for 30 minutes. A stimulus mouse was placed in a wire cage and the duration of sniffing by the subject mice to the wire cage was measured for 15 minutes.

[4] = system: Fmr1-deficient animal model (fragile X syndrome); experiment: three-chamber test in Fmr1-deficient animal model; settings: Fmr1 KO mice, lisuride intraperitoneally 50 ug/kg, test 30 minutes after administration, FIG. 1
Procedure: as §3
If the animal model spent more time with a novel mouse rather than a familiar mouse, it is judged to be social. The test animal was exposed to the stimulus mouse for 10 minutes, and to a new stimulus mouse (novel) for another 10 minutes. In this case, the old mouse is called familiar and the new mouse is called a novel mouse. The time the test mouse explored each stimulus mouse was measured and expressed as %. As a result of the experiment, it was confirmed that the wild type spent more time with the novel mouse than the familiar mouse, indicating normal sociability. […]

[5] = system: Fmr1-deficient animal model (fragile X syndrome); experiment: pre-pulse (pre-wave) suppression test in Fmr1-deficient animal model; settings: Fmr1 KO mice, lisuride intraperitoneally, FIG. 3
Procedure: as §3
The startle response was confirmed using an Fmr1-deficient animal model. […] Thereafter, sensorimotor gating was evaluated through a pre-wave suppression test (converted using Equation 1 below).
as §1

`CCN(CC)C(=O)N[C@H]1C=C2c3cccc4[nH]cc(c34)C[C@H]2N(C)C1` [lisuride, 1,1-Diethyl-3-(7-methyl-4,6,6a,7,8,9-hexahydro-indolo [4,3-fg]quinolin-9-yl)-urea] was tested. Which “pre-pulse suppression (sensorimotor gating)” value (“pre-pulse suppression” for short) [1] did it give?
The value was “pre-pulse suppression was restored”.

And the “pre-pulse suppression” value [2]?
The value was “pre-pulse suppression was restored”.

What about the “sniffing time to wire cage with stimulus mouse (sociability)” value [3] of the same compound?
The value was “sniffing time increased again”.

What about the “sociability: time spent with novel mouse versus familiar mouse” value [4] of the same compound?
Its value is “more time was spent with the novel mouse than with the familiar mouse”.

What about the “pre-pulse suppression” value [5] of the same compound?
The value was “pre-pulse suppression was restored”.

Source: US20230024384A1, “C[…] COMPOUND FOR TREATING FRAGILE X SYNDROME OR RELATED DEVELOPMENTAL DISORDERS” (NEUROVENTI, priority 2020, published 2023)
